Experimental data published in US20230407243A1, “GENETIC PLATFORM TO INVESTIGATE THE FUNCTIONS OF BACTERIAL DRUG EFFLUX PUMPS” (priority 2022, published 2023).
≈ marks a conversion by molar mass, not a printed value. Read-outs that look alike come from different tables or passages of the source.

What was measured:
Assay type in all cases: cell-based, Escherichia coli
EKO-35 araC::acrB = test: MIC susceptibility profiling, efflux platform; details: for Fold change of MICs: EKO-35 araC::acrB compared to EKO-35
How it was run: (§1)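 Overnight LB cultures resuspended in PBS to OD600 ~1.0, diluted 1/2000 into MHB II, and added to 2-fold serial compound dilutions in duplicate with DMSO controls. Incubated 18 h at 37° C. with 900 rpm shaking; OD600 read before and after, background subtracted, to derive MIC.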

EKO-35 araC::mdtEF = test: MIC susceptibility profiling, efflux platform; details: for Fold change of MICs: EKO-35 araC::mdtEF compared to EKO-35; for Minimum Inhibitory Concentration, EKO-35 araC::mdtEF: Table 13A, non-porinated, technical duplicate
How it was run: as §1

ΔtolC (empty pCA24N) = test: microbe, parasite or virus in culture; details: 0.1 mM IPTG; for MIC: ΔtolC empty pCA24N; for MIC, ΔtolC (empty pCA24N), Chlor −: no plasmid selection; for MIC, ΔtolC (empty pCA24N), Chlor +: with chloramphenicol plasmid selection
EKO-35-Pore = test: MIC susceptibility profiling, porinated strain; details: for Fold changes of MICs: EKO-35-Pore compared to EKO-35-Pore (reference); for Minimum inhibitory concentration (MIC), Pore EKO-35: Table 10, with pore; for Minimum inhibitory concentration (MIC), Pore EKO-35 / Minimum inhibitory concentration, EKO-35-Pore: technical duplicate; for Minimum inhibitory concentration, EKO-35-Pore: Table 14A, porinated
How it was run: (§2)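 E. coli strains carrying a genomically integrated constitutive fhuA ΔC/Δ4L pore were grown 18 h in LB at 37 °C, then diluted 1/2000 in MHB II from OD600 ~1.0. Compounds were tested in duplicate, 2-fold serial titration, for 18 h at 37 °C with shaking. MIC came from OD600 with the pre-incubation background subtracted.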

EKO-35 (empty pCA24N) = test: microbe, parasite or virus in culture; details: for MIC, EKO-35 (empty pCA24N), Chlor +: 4 μg/mL chloramphenicol selection; for MIC, EKO-35 (empty pCA24N), Chlor −: no plasmid selection
ΔtolC-Pore = test: microbe, parasite or virus in culture; details: for Minimum inhibitory concentration (MIC), Pore ΔtolC: Table 10, with pore; for Minimum inhibitory concentration (MIC), Pore ΔtolC / Minimum inhibitory concentration, ΔtolC-Pore: technical duplicate; for Minimum inhibitory concentration, ΔtolC-Pore: Table 14A, porinated
How it was run: as §2

wild-type (WT) K-12-Pore = test: microbe, parasite or virus in culture; details: for Minimum inhibitory concentration (MIC), Pore K-12: Table 10, with pore; for Minimum inhibitory concentration (MIC), Pore K-12 / Minimum inhibitory concentration, K-12 (WT)-Pore: technical duplicate; for Minimum inhibitory concentration, K-12 (WT)-Pore: Table 14A, porinated; for MIC: Escherichia coli
How it was run: as §2

E. coli EKO-35 = test: microbe, parasite or virus in culture; details: for Fold change of MICs: EKO-35 compared to EKO-35 (reference); for Minimum inhibitory concentration (MIC), EKO-35: Table 10, without pore; for Minimum inhibitory concentration (MIC), EKO-35 / Minimum Inhibitory Concentration, EKO-35: technical duplicate; for Minimum Inhibitory Concentration, EKO-35: Table 13A, non-porinated; for MIC: Escherichia coli
How it was run: as §1

[1] = tested on: wild-type E. coli K-12 str. BW25113; test: microbe, parasite or virus in culture; details: for Minimum inhibitory concentration (MIC), K-12: Table 10, without pore; for Minimum inhibitory concentration (MIC), K-12 / Minimum Inhibitory Concentration, K-12: technical duplicate; for Minimum Inhibitory Concentration, K-12: Table 13A, non-porinated; for MIC: Escherichia coli
How it was run: as §1

E. coli ΔtolC = test: microbe, parasite or virus in culture; details: for Minimum inhibitory concentration (MIC), ΔtolC: Table 10, without pore; for Minimum inhibitory concentration (MIC), ΔtolC / Minimum Inhibitory Concentration, ΔtolC: technical duplicate; for Minimum Inhibitory Concentration, ΔtolC: Table 13A, non-porinated
How it was run: as §1

[2] = Table 13A, non-porinated, technical duplicate

Compound | Fold change of MICs (EKO-35 araC::acrB) [fold] | Minimum Inhibitory Concentration, EKO-35 araC::acrB (EKO-35 araC::acrB; [2]) [µg/mL] | Fold change of MICs (EKO-35 araC::mdtEF) [fold] | Minimum Inhibitory Concentration, EKO-35 araC::mdtEF (EKO-35 araC::mdtEF) [µg/mL] | Fold changes of MICs (EKO-35-Pore) [fold] | Minimum inhibitory concentration (MIC), Pore EKO-35 (EKO-35-Pore) [µg/mL] | Minimum inhibitory concentration, EKO-35-Pore (EKO-35-Pore) [µg/mL] | Minimum inhibitory concentration (MIC), Pore ΔtolC (ΔtolC-Pore) [µg/mL] | Minimum inhibitory concentration, ΔtolC-Pore (ΔtolC-Pore) [µg/mL] | Minimum inhibitory concentration (MIC), Pore K-12 (wild-type (WT) K-12-Pore) [µg/mL] | Minimum inhibitory concentration, K-12 (WT)-Pore (wild-type (WT) K-12-Pore) [µg/mL] | Fold change of MICs (E. coli EKO-35) [fold] | Minimum inhibitory concentration (MIC), EKO-35 (E. coli EKO-35) [µg/mL] | Minimum Inhibitory Concentration, EKO-35 (E. coli EKO-35) [µg/mL] | Minimum inhibitory concentration (MIC), K-12 [1] [µg/mL] | Minimum Inhibitory Concentration, K-12 [1] [µg/mL] | Minimum inhibitory concentration (MIC), ΔtolC (E. coli ΔtolC) [µg/mL] | Minimum Inhibitory Concentration, ΔtolC (E. coli ΔtolC) [µg/mL] | MIC, ΔtolC (empty pCA24N), Chlor − (ΔtolC (empty pCA24N)) [μg/mL] | MIC, ΔtolC (empty pCA24N), Chlor + (ΔtolC (empty pCA24N)) [μg/mL] | also measured
benzalkonium chloride | 32 | 12.5 | 4 | 1.563 | 1 | 0.391 | 0.391 | 0.391 | 0.391 | 6.25 | 6.25 | 1 | 0.391 | 0.391 | 12.5 | 12.5 | 0.391 | 0.391 |  |  | MIC (ΔtolC (empty pCA24N); Chlor +): 0.781 µg/mL; MIC (ΔtolC (empty pCA24N); Chlor −): 1.56 µg/mL; MIC (EKO-35 (empty pCA24N); EKO-35 empty pCA24N, Chlor + (4 μg/mL chloramphenicol), 0.1 mM IPTG): 0.781 µg/mL; MIC (EKO-35 (empty pCA24N); EKO-35 empty pCA24N, Chlor −, 0.1 mM IPTG): 0.781 µg/mL
O=C(Nc1ccccc1C(=O)Nc1nnc(C(F)(F)F)s1)c1ccccc1Cl [compound 19] | 1 | 320 | 1 | 320 | 1 | 320 | 320 | 0.625 | 0.625 | 320 | 320 | 1 | 320 | 320 | 320 | 320 | 2.5 | 2.5 | 2.5 | 2.5 | MIC, EKO-35 (empty pCA24N), Chlor + (EKO-35 (empty pCA24N); 0.1 mM IPTG): >5 μg/mL; MIC, EKO-35 (empty pCA24N), Chlor − (EKO-35 (empty pCA24N); 0.1 mM IPTG): >5 μg/mL
COc1cc(Cc2cnc(N)nc2N)cc(OC)c1OC [trimethoprim] | 8 |  | 2 |  | 1 |  |  | 0.049 |  |  |  | 1 |  |  |  |  | 0.098 |  |  |  | MIC (EKO-35 araC::acrB; Escherichia coli, Table 13A, non-porinated, technical duplicate, read-out: Minimum Inhibitory Concentration, EKO-35 araC::acrB): 1.56 µg/mL; MIC (ΔtolC (empty pCA24N); Escherichia coli, Chlor +): 1.56 µg/mL (≈ 5.37 µM); MIC (ΔtolC (empty pCA24N); Escherichia coli, Chlor −): 0.195 µg/mL (≈ 0.672 µM); MIC (EKO-35 (empty pCA24N); Escherichia coli): 0.391 µg/mL (≈ 1.35 µM); MIC (ΔtolC-Pore; Escherichia coli, 18 h, read-out: Minimum inhibitory concentration, ΔtolC-Pore): 0.049 µg/mL; MIC (wild-type (WT) K-12-Pore; read-out: Minimum inhibitory concentration (MIC), Pore K-12): 0.391 µg/mL; MIC (wild-type (WT) K-12-Pore; read-out: Minimum inhibitory concentration, K-12 (WT)-Pore): 0.391 µg/mL; MIC (E. coli EKO-35; EKO35, read-out: Minimum Inhibitory Concentration, EKO-35): 0.195 µg/mL; MIC (E. coli EKO-35; EKO35, read-out: Minimum inhibitory concentration (MIC), EKO-35): 0.195 µg/mL; MIC ([1]; BW25113, read-out: Minimum Inhibitory Concentration, K-12): 0.391 µg/mL; MIC ([1]; BW25113, read-out: Minimum inhibitory concentration (MIC), K-12): 0.391 µg/mL; MIC (E. coli ΔtolC; Escherichia coli, 18 h, read-out: Minimum Inhibitory Concentration, ΔtolC): 0.098 µg/mL
N#Cc1ccc(-c2c(NC(=O)C(Cl)Cl)oc(-c3cccs3)c2C#N)cc1 [compound 2] | 1 | 320 | 1 | 320 | 1 | 320 | 320 | 1.25 | 1.25 | 320 | 320 | 1 | 320 | 320 | 320 | 320 | 1.25 | 1.25 | 1.25 | 1.25 | MIC, EKO-35 (empty pCA24N), Chlor + (EKO-35 (empty pCA24N); 0.1 mM IPTG): >5 μg/mL; MIC, EKO-35 (empty pCA24N), Chlor − (EKO-35 (empty pCA24N); 0.1 mM IPTG): >5 μg/mL
Cn1cc(Br)c(-c2cccc(NC(=O)Nc3ccc(OC(F)(F)F)cc3)c2)n1 [compound 14] | 1 | 320 | 1 | 320 | 1 | 320 | 320 | 1.25 | 1.25 | 320 | 320 | 1 | 320 | 320 | 320 | 320 | 2.5 | 2.5 | 1.25 | 1.25 | MIC, EKO-35 (empty pCA24N), Chlor + (EKO-35 (empty pCA24N); 0.1 mM IPTG): >5 μg/mL; MIC, EKO-35 (empty pCA24N), Chlor − (EKO-35 (empty pCA24N); 0.1 mM IPTG): >5 μg/mL
